Laboratory results from PMC3772632 (Nature structural & molecular biology, 2013).

What was measured:
[1] = test system: dnak deletion strain BB205; test: Growth tests in dnak deletion strain BB205 at 37°C; format: cell-based, E. coli; settings: serial dilutions spotted on LB plates, 20 μM IPTG, one overnight
[2] = test system: DnaK Trp102 (NBD-SBD allosteric coupling); settings: cited from earlier work
[3] = test system: DnaK ATPase; settings: ref [16],[28]; cited from earlier work
[4] = test system: SBD; settings: cited from earlier work

With G461P the “in vivo DnaK function / activity in growth tests” value (“in vivo DnaK function / activity” for short) [1] was “compromised in vivo DnaK function modestly”.
With G468P the “in vivo DnaK function / activity” value [1] was “compromised in vivo DnaK function modestly”.
In the case of “T199A: well-characterized mutation that abolishes ATPase activity but maintains allosteric coupling”, the “Allosteric coupling of mutant” value ([2]; ref [16],[28]) is listed as “maintains allosteric coupling” and the “ATPase activity of mutant” value [3] is listed as “abolishes ATPase activity”.
For `Nc1ncnc2c1ncn2[C@@H]1O[C@H](COP(=O)(O)OP(=O)(O)OP(=O)(O)O)[C@@H](O)[C@H]1O` [ATP], the “ATP-induced change of tryptophan fluorescence” value ([2]; full-length DnaK, relative to apo and ADP-bound forms, ref [16]) is listed as “blue-shift and fluorescence quenching”, the “Binding and release rates of substrates upon ATP binding” value ([4]; Hsp70 (mainly DnaK)) is listed as “greatly accelerated, more for release than binding” and the “Reduction of affinity of SBD for its substrates upon ATP binding” value ([4]; ref [19],[20]) is listed as “two to three”.
In the case of “D100L: DnaK mutated individually at Asp100”, the “in vivo DnaK function / activity” value [1] is reported as “moderate growth phenotype”.
